Among the data in patent publication US7642277B2, “Non-nucleoside reverse transcriptase inhibitors” (Boehringer Ingelheim International GmbH, priority 2002, dated 2010) are IC50 and EC50 values, retold here.

Some results are limits rather than exact numbers.

The target in assay [1] is T1, HIV-1 RT enzyme (wild type) (Human immunodeficiency virus type 1 group M subtype B, UniProt P04585).
T1 construct: The reverse transcriptase (RT) enzyme assay has been adapted to a 96-well microtiter plate format
Nature of the assay: Reverse transcriptase (RT) enzymatic assay (IC50), PicoGreen fluorescence, wild type. To be noted: RT enzymatic assay, wild type; read-out: IC50 WT. It is filed as biochemical. An outline of the steps:
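Enzyme at ≈10 nM in 50 mM Tris/HCl pH 7.8 with 60 mM NaCl, 2 mM MgCl2, 6 mM DTT, 2 mM GSH, 0.02% Chaps; 15 min preincubation with compound at room temperature, then substrate added and run 50 min at 37 °C. EDTA quench; product DNA read by PicoGreen fluorescence.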

For assay [2], the target named is T2, HIV-1 RT resistant mutant K103N/Y181C (Human immunodeficiency virus type 1 group M subtype B, UniProt P04585, K690N/Y768C).
T2 construct: The reverse transcriptase (RT) enzyme assay has been adapted to a 96-well microtiter plate format
Nature of the assay: Reverse transcriptase (RT) enzymatic assay (IC50), PicoGreen fluorescence, resistant mutant. The assay is classed as biochemical. How it is done:
Reverse Transcriptase (RT) Assays Enzymatic Assay (IC50)
The enzymatic assay employed is described as follows: The reverse transcriptase (RT) enzyme assay has been adapted to a 96-well microtiter plate format and uses PicoGreen™ as a fluorescent intercalator. More explicitly, the HIV-1 RT enzyme was thawed and appropriately diluted into Tris/HCl 50 mM pH 7.8 containing NaCl 60 mM, MgCl2∘6H2O 2 mM, DTT 6 mM, GSH 2 mM and 0.02% w/v Chaps to give ≈10 nM enzyme. To 10 μL of this enzyme solution was added 10 μL of inhibitor solution (40 μM to […] inhibitor in the same assay buffer as above containing 4% v/v DMSO). The plate was pre-incubated for 15 minutes at room temperature before proceeding to the next step. In this pre-incubation step, the highest and lowest inhibitor concentrations were 20 μM and 1.016 nM respectively and the concentration of DMSO was 2% v/v. Then the enzymatic reaction was initiated by addition of 20 μL of substrate solution. The final reaction mixture contained Tris/HCl 50 mM pH 7.8, NaCl 60 mM, MgCl2∘6H2O 2 mM, DTT 6 mM, GSH 2 mM, CHAPS 0.02% w/v, DMSO 1% v/v, poly rC 45 nM, dG15 4.5 nM, dGTP 3.6 μM, and ≈2.5 nM enzyme. In this incubation step, the highest and lowest inhibitor concentrations were 10 μM and 0.508 nM respectively. After addition of the substrate cocktail, the plate was covered with a plastic seal and incubated for 50 minutes at 37° C. in a dry incubator. The reaction was then quenched by addition of 5 μL of EDTA 0.5 M. The plate was shaken for 30 seconds at medium speed and incubated for 5 minutes at room temperature. Then 160 μL of PicoGreen™ 1:400 dilution from commercial stock (diluted in Tris 20 mM pH 7.5 with EDTA 1 mM) was added and the plate was shaken for 30 seconds and incubated for 10 minutes at room temperature. The plate was then analyzed using a POLARstar Galaxy fluorimeter (BMG Labtechnologies) with λex and λem of 485 nm and 520 nm respectively. […] Each row contained at its extremities a blank and a control well.
(§1) Table legend: A=>100; B=100-50; C=<50; NT=not tested

The subject of assay [3] is HIV-1 (wild type) in C8166 LTRluc cells. The assay is described as follows: C8166 HIV-1 luciferase assay (EC50), wild type. Conditions: Human immunodeficiency virus 1, C8166 HIV-1 luciferase assay (no *). The assay is classed as cell-based.
Description: (§2) C8166 HIV-1 Luciferase Assay (EC50)
(§3) Plasmid: pGL3 Basic LTR/TAR #12
Plasmid is the pGL3 Basic Vector (a promoterless luciferase expression vector from Promega catalogue #E1751) with the addition of HIV-1 H×B2 LTR sequence from nucleotide −138 to +80 (Sca1-HindIII) upstream of the luciferase gene and the gene for blasticidine resistance cloned in.
(§4) C8166 cells are a human T-lymphotrophic virus type 1 immortalized but nonexpressing line of cord blood lymphocytes and are highly permissive to HIV-1 infection. The reporter cells were made by electroporating C8166 cells with pGL3 Basic LTR/TAR and then selecting positive clones with blasticidine. The clone C8166-LTRluc #A8-F5-G7 was selected by 3 consecutive rounds of limiting dilution under blasticidine selection.
(§5) Media: Complete media consisting of: RPMI 1640+10% FBS+10^−5 M
(§6) β-mercaptoethanol+10 μg/ml gentamycin. Cultures are maintained in complete media with 5 μg/ml blasticidine, however, selection is removed for the assay.
(§7) Luciferase Assay Protocol
Serial dilutions of HIV-1 inhibitors compounds are prepared in complete media from 10 mM DMSO stock solutions. Eleven serial dilutions of 2.5× are made at 8× desired final concentration in a 1 ml deep well titer plate (96 wells). The 12th well contains complete media with no inhibitor and serves as the positive control. All samples contain the same concentration of DMSO (≦0.1% DMSO). A 25 μl aliquot of inhibitor is added, to triplicate wells, of a 96 well tissue culture treated clear view black microtiter plate (Corning Costar catalogue # 3904). The last row is reserved for uninfected C8166 LTRluc cells to serve as the background blank control and the first row is media alone.
Count C8166 LTRluc cells and place in a minimal volume of complete RPMI 1640 in a tissue culture flask (ex. 30×10^6 cells in 10 ml media/25 cm^2 flask). Infect cells with HIV-1 at a moi of 0.005. Incubate cells for 1.5 hours at 37° C. on a rotating rack in a 5% CO2 incubator. Resuspend cells in complete RPMI to give a final concentration of 25,000-cells/175 μl. Add 175 μl of cell mix to wells of 96 well microtiter plate containing 25 μl 8× inhibitors. Add 25,000 uninfected C8166-LTRluc cells/well in 200 μl complete RPMI to last row for background control. Incubate cells at 37° C. in 5% CO2 incubator for 3 days.
(§8) Add 50 μl Steady Glo (luciferase substrate T1/2=5 hours Promega catalogue # E2520) to each well of the 96 well plate. Determine the relative light units (RLU) of luciferase using the BMG LUMlstar Galaxy luminometer. Plates are read from the bottom for 2 seconds per well with a gain of 240.
(§9) The level of inhibition (% inhibition) of each well containing inhibitor was calculated with the following equation: […]
The calculated % inhibition values were then used to determine EC50, slope factor (n) and maximum inhibition (Imax) by the non-linear regression routine NLIN procedure of SAS using the following equation: […]
The results are listed in Table 9 as IC50(nM) and EC50 (nM).
as §1

The subject of assay [4] is HIV-1 resistant mutant K103N/Y181C in C8166 LTRluc cells. The assay is described as follows: C8166 HIV-1 luciferase assay (EC50), resistant mutant. To be noted: Human immunodeficiency virus 1, C8166, read-out: EC50 K103N/Y181C. The assay is classed as cell-based.
Description: as §2, §3, §4, §5, §6, §7
Eleven serial dilutions of 2.5× are made at 8× desired final concentration in a 1 ml deep well titer plate (96 wells). The 12th well contains complete media with no inhibitor and serves as the positive control. All samples contain the same concentration of DMSO (≦0.1% DMSO). A 25 μl aliquot of inhibitor is added, to triplicate wells, of a 96 well tissue culture treated clear view black microtiter plate (Corning Costar catalogue # 3904). The last row is reserved for uninfected C8166 LTRluc cells to serve as the background blank control and the first row is media alone.
Count C8166 LTRluc cells and place in a minimal volume of complete RPMI 1640 in a tissue culture flask (ex. 30×10^6 cells in 10 ml media/25 cm^2 flask). […] Incubate cells for 1.5 hours at 37° C. on a rotating rack in a 5% CO2 incubator. Resuspend cells in complete RPMI to give a final concentration of 25,000-cells/175 μl. Add 175 μl of cell mix to wells of 96 well microtiter plate containing 25 μl 8× inhibitors. Add 25,000 uninfected C8166-LTRluc cells/well in 200 μl complete RPMI to last row for background control. Incubate cells at 37° C. in 5% CO2 incubator for 3 days.
as §8, §9
The calculated % inhibition values were then used to determine EC50, slope factor (n) and maximum inhibition (Imax) by the non-linear regression routine NLIN procedure of SAS using the following equation:
as §1

What is called IC50 is the concentration needed to halve the response being measured. Regarding `CC(C)(C)c1ccc(-n2nnnc2SCC(=O)Nc2ccncc2Cl)c(Cl)c1` [Entry 801], the IC50 in assay [1] and in assay [2] was below 50 nM each time. Further, the EC50 in assay [3] and in assay [4] was below 50 nM throughout.

As for `CC(C)(C)c1ccc(-n2nnnc2SCC(=O)Nc2ccc(N3CCCCC3)cc2Cl)c(Cl)c1` [Entry 613], the IC50 in assay [1] is below 50 nM; in assay [2], above 100 nM. In addition, the results for the EC50 in assay [3] and in assay [4] were below 50 nM and above 100 nM, respectively.

Take `Cc1ccc(-n2nnnc2SCC(=O)Nc2ccc(-c3ccccc3)cc2Cl)c(Cl)c1` [Entry 510]: the IC50 in assay [1] is below 50 nM; in assay [2], 50 to 100 nM. Moreover, the EC50 in assay [3] was below 50 nM; in assay [4] it was above 100 nM.

Consider `Cc1cc(C(F)(F)F)cc(-n2nnnc2SCC(=O)Nc2ccc(S(N)(=O)=O)cc2Cl)c1Cl` [Entry 703], for which the IC50 in assay [1] was below 50 nM; in assay [2] it was 50 to 100 nM. For the same compound, the EC50 in assay [3] and in assay [4] was below 50 nM throughout.

With `CC(C)CS(=O)(=O)c1ccc(NC(=O)CSc2nnnn2-c2ccc(C(C)(C)C)cc2Cl)c(Cl)c1` [Entry 608], the IC50 in assay [1] is below 50 nM; in assay [2], above 100 nM. Besides, the EC50 was below 50 nM in assay [3] and 50 to 100 nM in assay [4].

As for `CC(C)(C)c1ccc(-n2nnnc2SCC(=O)Nc2ccc(N3CCOCC3)cc2Cl)c(Cl)c1` [Entry 611], the values for the IC50 in assay [1] and in assay [2] were below 50 nM and above 100 nM, respectively. Also, the values for the EC50 in assay [3] and in assay [4] were below 50 nM and above 100 nM, respectively.

Turning to `C=CCc1ccc(-n2nnnc2SCC(=O)Nc2ccccc2Cl)c(Cl)c1` [Entry 708], the IC50 was below 50 nM in assay [1] and above 100 nM in assay [2]. Further, the EC50 in assay [3] was below 50 nM; in assay [4], above 100 nM.

On to `CCN(CC)c1ccc(-n2nnnc2SCC(=O)Nc2ccccc2Cl)c(Cl)c1` [Entry 705], for which the results for the IC50 in assay [1] and in assay [2] were below 50 nM and above 100 nM, respectively. Moreover, the results for the EC50 in assay [3] and in assay [4] were below 50 nM and above 100 nM, respectively.

In the case of `Cc1cc(C)c(-n2nnnc2SCC(=O)Nc2ccccc2[N+](=O)[O-])c(Br)c1` [Entry 147], the IC50 in assay [1] was below 50 nM; in assay [2], above 100 nM. In addition, the values for the EC50 in assay [3] and in assay [4] were below 50 nM and 50 to 100 nM, respectively.

Turning to `CC(C)(C)c1ccc(-n2nnnc2SCC(=O)Nc2ccc(N)cc2Cl)c(Cl)c1` [Entry 617], the results for the IC50 in assay [1] and in assay [2] were below 50 nM and above 100 nM, respectively. The EC50 is below 50 nM in assay [3] and 50 to 100 nM in assay [4].

As for `Cc1ccc(-c2ccccc2SCC(=O)Nc2ccccc2Cl)c(Cl)c1` [Entry 416], the results for the IC50 in assay [1] and in assay [2] were below 50 nM and above 100 nM, respectively. The results for the EC50 in assay [3] and in assay [4] were below 50 nM and above 100 nM, respectively.

As for `CC(C)(C)c1ccc(-n2nnnc2SCC(=O)Nc2ccc(CCC(=O)O)cc2Cl)c(Cl)c1` [Entry 601], the IC50 is below 50 nM in assay [1] and above 100 nM in assay [2]. The results for the EC50 in assay [3] and in assay [4] were below 50 nM and above 100 nM, respectively.

With `Cc1nnc(SCC(=O)Nc2ccccc2[N+](=O)[O-])n1-c1cccc2ccccc12` [Entry 403], the IC50 was below 50 nM in assay [1] and above 100 nM in assay [2]. For the same compound, the EC50 was below 50 nM in assay [3] and above 100 nM in assay [4].

For the compound `Cc1ccc(-n2nnnc2SCC(=O)Nc2ccc(C(=O)O)cc2Br)c(Cl)c1` [Entry 505], the IC50 was below 50 nM in assay [1] and above 100 nM in assay [2]. The values for the EC50 in assay [3] and in assay [4] were below 50 nM and above 100 nM, respectively.

In the case of `CCc1ccc(-n2nnnc2SCC(=O)Nc2ccccc2Cl)c(Cl)c1` [Entry 707], the IC50 is below 50 nM in assay [1] and above 100 nM in assay [2]. Moreover, the EC50 in assay [3] was below 50 nM; in assay [4], above 100 nM.

For the compound `CC(C)(C)c1ccc(-n2nnnc2SCC(=O)Nc2ccc(N3CCCC3)cc2Cl)c(Cl)c1` [Entry 612], the IC50 in assay [1] was below 50 nM; in assay [2], above 100 nM. For the same compound, the values for the EC50 in assay [3] and in assay [4] were 50 to 100 nM and above 100 nM, respectively.

For the compound `Cc1ccc(-n2nnnc2SCC(=O)Nc2ccc(C(=O)O)cc2Cl)c(Cl)c1` [Entry 503], the IC50 in assay [1] is below 50 nM; in assay [2] it was above 100 nM. The figures for the EC50 in assay [3] and in assay [4] were below 50 nM and above 100 nM, respectively.

Consider `CC(C)(C)c1ccc(-n2nnnc2SCC(=O)Nc2ccc(S(N)(=O)=O)cc2Cl)c(Cl)c1` [Entry 604], for which the IC50 in assay [1] and in assay [2] was below 50 nM in each case. The EC50 in assay [3] and in assay [4] was below 50 nM throughout.

Turning to `CC(C)=CCc1ccc(-n2nnnc2SCC(=O)Nc2ccccc2Cl)c(Cl)c1` [Entry 709], the IC50 in assay [1] is below 50 nM; in assay [2], above 100 nM. Also, the EC50 in assay [3] and in assay [4] was above 100 nM in each case.

Regarding `O=C(CSc1nnnn1-c1ccc(I)cc1Cl)Nc1ccccc1Cl` [Entry 706], the IC50 is below 50 nM in assay [1] and above 100 nM in assay [2]. For the same compound, the EC50 in assay [3] is below 50 nM; in assay [4], above 100 nM.
